Experiments:
[1] = test system: Glomerella Lagenarium (Colletotrichum Lagenarium); assay: Glomerella lagenarium (Colletotrichum lagenarium) liquid culture / cucumber / preventative (anthracnose); assay type: cell-based; details: Colletotrichum orbiculare; 20 ppm in the applied formulation; liquid culture in PDB, 24° C., inhibition of growth measured photometrically 3 to 4 days after application, vs untreated; read-out: disease control
Method in brief: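 Conidia from cryogenic storage were mixed into potato dextrose broth. This was added to compound diluted from DMSO into 0.025% Tween20, tested at 20 ppm. Plates were incubated in the dark at 24 °C and 96% relative humidity, and growth was read photometrically after 2–7 days as % activity versus untreated check.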

[2] = test system: Puccinia recondita f. Sp. Tritici; assay: Puccinia recondita f. sp. tritici / wheat / leaf disc preventative (brown rust); assay type: in vivo; details: foliar, 168 h, 200 ppm in the applied formulation, wheat leaf segments cv. Kanzler, preventative, inoculated 1 day after application, assessed 7 to 9 days after application, vs untreated, read-out: disease control
Method in brief: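 Preventative leaf-segment test: spray application of diluted formulated compound on wheat cv. Kanzler, spore inoculation after 1 day. Percent control relative to untreated segments rated 7 to 9 days post-application, with incubation at 19° C, 75% relative humidity, 12 h photoperiod.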

Phakopsora pachyrhizi = Phakopsora pachyrhizi / soybean / leaf disc preventative (Asian soybean rust); assay type: in vivo; details: foliar, 288 h, 200 ppm in the applied formulation, soybean leaf disks, inoculated one day after application, assessed 12 to 14 days after application, vs untreated, read-out: disease control
Procedure: Leaf disks or leaf segments of various plant species are cut from plants grown in a greenhouse. The cut leaf disks or segments are placed in multiwell plates (24-well format) onto water agar. The leaf disks are sprayed with a test solution before (preventative) or after (curative) inoculation. Compounds to be tested are prepared as DMSO solutions (max. 10 mg/ml) which are diluted to the appropriate concentration with 0.025% Tween20 just before spraying. The inoculated leaf disks or segments are incubated under defined conditions (temperature, relative humidity, light, etc.) according to the respective test system. A single evaluation of disease level is carried out 3 to 14 days after inoculation, depending on the pathosystem. Percent disease control relative to the untreated check leaf disks or segments is then calculated.
Soybean leaf disks are placed on water agar in multiwell plates (24-well format) and sprayed with the formulated test compound diluted in water. One day after application leaf discs are inoculated by spraying a spore suspension on the lower leaf surface. After an incubation period in a climate cabinet of 24-36 hours in darkness at 20° C. and 75% rh leaf disc are kept at 20° C. with 12 h light/day and 75% rh. The activity of a compound is assessed as percent disease control compared to untreated when an appropriate level of disease damage appears in untreated check leaf disks (12 to 14 days after application).
The following compounds at 200 ppm in the applied formulation give at least 80% disease control in this test when compared to untreated control leaf disks under the same conditions, which show extensive disease development.

[3] = test system: Puccinia recondita f. Sp. Tritici; assay: Puccinia recondita f. sp. tritici / wheat / leaf disc curative (brown rust); assay type: in vivo; details: foliar, 144 h, 200 ppm in the applied formulation, wheat leaf segments cv. Kanzler, applied 1 day after inoculation, assessed 6 to 8 days after application, vs untreated, read-out: disease control
Method in brief: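 Curative leaf-segment test, cv. Kanzler: spore inoculation, dark storage 19° C/75% RH, compound spray 1 day post-inoculation. Then 12 h light/12 h dark, 19° C, 75% RH. Read-out: % disease control vs untreated check, 6–8 d after application.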

FC(F)(F)c1nc(-c2ccc(Cn3ccnc3Br)cc2)no1 [Compound 1.49, 3-[4-[(2-bromoimidazol-1-yl)methyl]phenyl]-5-(trifluoromethyl)-1,2,4-oxadiazole]
≥ 80%: inhibition of growth at 20 ppm [1] | pest or weed control at 200 ppm [2] | pest or weed control at 200 ppm (Phakopsora pachyrhizi) | pest or weed control at 200 ppm [3]

CC(C)c1nccn1Cc1ccc(-c2noc(C(F)(F)F)n2)cc1 [Compound 1.56, 3-[4-[(2-isopropylimidazol-1-yl)methyl]phenyl]-5-(trifluoromethyl)-1,2,4-oxadiazole]
≥ 80%: inhibition of growth at 20 ppm [1] | pest or weed control at 200 ppm [2] | pest or weed control at 200 ppm (Phakopsora pachyrhizi) | pest or weed control at 200 ppm [3]

FC(F)(F)c1nc(-c2ccc(Cn3cnc(Br)c3)cc2)no1 [Compound 1.79, 3-[4-[(4-bromoimidazol-1-yl)methyl]phenyl]-5-(trifluoromethyl)-1,2,4-oxadiazole]
≥ 80%: inhibition of growth at 20 ppm [1] | pest or weed control at 200 ppm [2] | pest or weed control at 200 ppm (Phakopsora pachyrhizi) | pest or weed control at 200 ppm [3]

O=Cc1ccn(Cc2ccc(-c3noc(C(F)(F)F)n3)cc2)n1 [Compound 1.85, 1-[[4-[5-(trifluoromethyl)-1,2,4-oxadiazol-3-yl]phenyl]methyl]pyrazole-3-carbaldehyde]
≥ 80%: inhibition of growth at 20 ppm [1] | pest or weed control at 200 ppm [2] | pest or weed control at 200 ppm (Phakopsora pachyrhizi) | pest or weed control at 200 ppm [3]

FC(F)(F)c1nc(-c2ccc(Cn3cc4ccccc4n3)cc2)no1 [Compound 1.86, 3-[4-(indazol-2-ylmethyl)phenyl]-5-(trifluoromethyl)-1,2,4-oxadiazole]
≥ 80%: inhibition of growth at 20 ppm [1] | pest or weed control at 200 ppm [2] | pest or weed control at 200 ppm (Phakopsora pachyrhizi) | pest or weed control at 200 ppm [3]

FC(F)(F)c1nc(-c2ccc(Cn3ncc4ccccc43)cc2)no1 [Compound 1.87, 3-[4-(indazol-1-ylmethyl)phenyl]-5-(trifluoromethyl)-1,2,4-oxadiazole]
≥ 80%: inhibition of growth at 20 ppm [1] | pest or weed control at 200 ppm [2] | pest or weed control at 200 ppm (Phakopsora pachyrhizi) | pest or weed control at 200 ppm [3]

COC(=O)c1cn(Cc2ccc(-c3noc(C(F)(F)F)n3)cc2)cn1 [Compound 1.88, methyl 1-[[4-[5-(trifluoromethyl)-1,2,4-oxadiazol-3-yl]phenyl]methyl]imidazole-4-carboxylate]
≥ 80%: inhibition of growth at 20 ppm [1] | pest or weed control at 200 ppm [2] | pest or weed control at 200 ppm (Phakopsora pachyrhizi) | pest or weed control at 200 ppm [3]

FC(F)(F)c1cn(Cc2ccc(-c3noc(C(F)(F)F)n3)cc2)cn1 [Compound 1.90]
≥ 80%: inhibition of growth at 20 ppm [1] | pest or weed control at 200 ppm [2] | pest or weed control at 200 ppm (Phakopsora pachyrhizi) | pest or weed control at 200 ppm [3]

Cc1nc(Br)cn1Cc1ccc(-c2noc(C(F)(F)F)n2)cc1 [Compound 1.91, 3-[4-[(4-bromo-2-methyl-imidazol-1-yl)methyl]phenyl]-5-(trifluoromethyl)-1,2,4-oxadiazole]
≥ 80%: inhibition of growth at 20 ppm [1] | pest or weed control at 200 ppm [2] | pest or weed control at 200 ppm (Phakopsora pachyrhizi) | pest or weed control at 200 ppm [3]

Cc1cc(C#N)nn1Cc1ccc(-c2noc(C(F)(F)F)n2)cc1 [Compound 1.93, 5-methyl-1-[[4-[5-(trifluoromethyl)-1,2,4-oxadiazol-3-yl]phenyl]methyl]pyrazole-3-carbonitrile]
≥ 80%: inhibition of growth at 20 ppm [1] | pest or weed control at 200 ppm [2] | pest or weed control at 200 ppm (Phakopsora pachyrhizi) | pest or weed control at 200 ppm [3]

FC(F)(F)c1nc(-c2ccc(Cn3cnc(I)c3)cc2)no1 [Compound 1.96, 3-[4-[(4-iodoimidazol-1-yl)methyl]phenyl]-5-(trifluoromethyl)-1,2,4-oxadiazole]
≥ 80%: inhibition of growth at 20 ppm [1] | pest or weed control at 200 ppm [2] | pest or weed control at 200 ppm (Phakopsora pachyrhizi) | pest or weed control at 200 ppm [3]

Cc1cc(C)n(Cc2ccc(-c3noc(C(F)(F)F)n3)cc2F)n1 [Compound 1.102, 3-[4-[(3,5-dimethylpyrazol-1-yl)methyl]-3-fluoro-phenyl]-5-(trifluoromethyl)-1,2,4-oxadiazole]
≥ 80%: inhibition of growth at 20 ppm [1] | pest or weed control at 200 ppm [2] | pest or weed control at 200 ppm (Phakopsora pachyrhizi) | pest or weed control at 200 ppm [3]

Fc1cc(-c2noc(C(F)(F)F)n2)ccc1Cn1ccnc1 [Compound 1.129, 3-[3-fluoro-4-(imidazol-1-ylmethyl)phenyl]-5-(trifluoromethyl)-1,2,4-oxadiazole]
≥ 80%: inhibition of growth at 20 ppm [1] | pest or weed control at 200 ppm [2] | pest or weed control at 200 ppm (Phakopsora pachyrhizi) | pest or weed control at 200 ppm [3]

FC(F)(F)c1nc(-c2ccc(Cn3cnc(Br)c3)nc2)no1 [Compound 1.136, 3-[6-[(4-bromoimidazol-1-yl)methyl]-3-pyridyl]-5-(trifluoromethyl)-1,2,4-oxadiazole]
≥ 80%: inhibition of growth at 20 ppm [1] | pest or weed control at 200 ppm [2] | pest or weed control at 200 ppm (Phakopsora pachyrhizi) | pest or weed control at 200 ppm [3]

O=C(O)c1cnn(Cc2ccc(-c3noc(C(F)(F)F)n3)cc2)c1 [Compound 1.147, 1-[[4-[5-(trifluoromethyl)-1,2,4-oxadiazol-3-yl]phenyl]methyl]pyrazole-4-carboxylic acid]
≥ 80%: inhibition of growth at 20 ppm [1] | pest or weed control at 200 ppm [2] | pest or weed control at 200 ppm (Phakopsora pachyrhizi) | pest or weed control at 200 ppm [3]

O=Cc1cn(Cc2ccc(-c3noc(C(F)(F)F)n3)cc2)cn1 [Compound 1.151, 1-[[4-[5-(trifluoromethyl)-1,2,4-oxadiazol-3-yl]phenyl]methyl]imidazole-4-carbaldehyde]
≥ 80%: inhibition of growth at 20 ppm [1] | pest or weed control at 200 ppm [2] | pest or weed control at 200 ppm (Phakopsora pachyrhizi) | pest or weed control at 200 ppm [3]

N#Cc1cn(Cc2ccc(-c3noc(C(F)(F)F)n3)cc2)cn1 [Compound 1.154, 1-[[4-[5-(trifluoromethyl)-1,2,4-oxadiazol-3-yl]phenyl]methyl]imidazole-4-carbonitrile]
≥ 80%: inhibition of growth at 20 ppm [1] | pest or weed control at 200 ppm [2] | pest or weed control at 200 ppm (Phakopsora pachyrhizi) | pest or weed control at 200 ppm [3]

FC(F)Sc1nc(-c2ccc(Cl)cc2)cn1Cc1ccc(-c2noc(C(F)(F)F)n2)cc1 [Compound 1.174, 3-[4-[[4-(4-chlorophenyl)-2-(difluoromethyl-sulfanyl)imidazol-1-yl]methyl]phenyl]-5-(trifluoromethyl)-1,2,4-oxadiazole]
≥ 80%: inhibition of growth at 20 ppm [1] | pest or weed control at 200 ppm [2] | pest or weed control at 200 ppm (Phakopsora pachyrhizi) | pest or weed control at 200 ppm [3]

COC(=O)c1cccc2nn(Cc3ccc(-c4noc(C(F)(F)F)n4)cc3)cc12 [Compound 1.192, methyl 2-[[4-[5-(trifluoromethyl)-1,2,4-oxadiazol-3-yl]phenyl]methyl]indazole-4-carboxylate]
≥ 80%: inhibition of growth at 20 ppm [1] | pest or weed control at 200 ppm [2] | pest or weed control at 200 ppm (Phakopsora pachyrhizi) | pest or weed control at 200 ppm [3]

Nc1nc(C(F)(F)F)nn1Cc1ccc(-c2noc(C(F)(F)F)n2)cc1 [Compound 1.200, 5-(trifluoromethyl)-2-[[4-[5-(trifluoromethyl)-1,2,4-oxadiazol-3-yl]phenyl]methyl]-1,2,4-triazol-3-amine]
≥ 80%: inhibition of growth at 20 ppm [1] | pest or weed control at 200 ppm [2] | pest or weed control at 200 ppm (Phakopsora pachyrhizi) | pest or weed control at 200 ppm [3]

Reference: US10798941B2, “Microbiocidal oxadiazole derivatives” (SYNGENTA PARTICIPATIONS AG, priority 2016, dated 2020)
